In patent US20160242416A1, “FUNGICIDAL ISOXAZOLINE CARBINOLS” (E I DU PONT DE NEMOURS AND COMPANY, priority 2015, published 2016):

Columns and labels:
[1] = system: Phytophthora infestans; type: in vivo; conditions: 100 = 100% disease control; for Test C rating (% disease control): 50 ppm (asterisk), tomato late blight, 0 = no control; for Test C disease control rating: 50 ppm test solution (asterisked compounds), 0 = no control relative to controls
[2] = system: Erysiphe graminis f sp. tritici; test: Test G: wheat powdery mildew, preventive spray on wheat seedlings; conditions: 100 = 100% disease control; for Test G rating (% disease control): 50 ppm (asterisk), wheat powdery mildew, 0 = no control; for Test G disease control rating: 50 ppm test solution (asterisked compounds), 0 = no control relative to controls
[3] = system: Stagonospora nodorum; test: Test D: wheat glume blotch, preventive spray on wheat seedlings; conditions: 100 = 100% disease control; for Test D rating (% disease control): 50 ppm (asterisk), wheat glume blotch, 0 = no control; for Test D disease control rating: 50 ppm test solution (asterisked compounds), 0 = no control relative to controls
[4] = system: Puccinia recondita f sp. tritici; test: Test F: wheat leaf rust, preventive spray on wheat seedlings; conditions: 100 = 100% disease control; for Test F rating (% disease control): 50 ppm (asterisk), wheat leaf rust, 0 = no control; for Test F disease control rating: 50 ppm test solution (asterisked compounds), 0 = no control relative to controls
[5] = system: Zymoseptoria tritici; test: Test E: wheat leaf blotch, preventive spray on wheat seedlings; conditions: 100 = 100% disease control; for Test E rating (% disease control): 50 ppm (asterisk), wheat leaf blotch, 0 = no control; for Test E disease control rating: 50 ppm test solution (asterisked compounds), 0 = no control relative to controls
Text: General protocol for preparing test solutions for Tests A-G: the test compounds were first dissolved in acetone in an amount equal to 3% of the final volume and then suspended at the desired concentration (in ppm) in acetone and purified water (50/50 mix by volume) containing 250 ppm of the surfactant PEG400 (polyhydric alcohol esters). The resulting test suspensions were then used in Tests A-G. Compounds were sprayed at a concentration of 50 ppm (*) or 10 ppm to the point of run-off on the test plants, the equivalent of a rate of 200 g/ha or 40 g/ha, respectively.
The test solution was sprayed to the point of run-off on wheat seedlings. The following day the seedlings were inoculated with a spore suspension of Zymoseptoria tritici (the causal agent of wheat leaf blotch) and incubated in a saturated atmosphere at 24° C. for 48 h, and then moved to a growth chamber at 20° C. for 17 days, after which time visual disease ratings were made.
Compounds with an asterisks (*) were applied at a concentration of 50 ppm, otherwise test solutions were applied at 10 ppm.

[6] = system: Botrytis cinerea; test: Test B: gray mold, preventive spray on tomato seedlings; conditions: 100 = 100% disease control; for Test B rating (% disease control): 50 ppm (asterisk), gray mold on tomato, 0 = no control; for Test B disease control rating: 50 ppm test solution (asterisked compounds), 0 = no control relative to controls

| SMILES | Test C rating (% disease control) [1] | Test G rating (% disease control) [2] | Test D rating (% disease control) [3] | Test F rating (% disease control) [4] | Test E rating (% disease control) [5] | Test B rating (% disease control) [6] | Test C disease control rating [1] | Test G disease control rating [2] | Test D disease control rating [3] | Test F disease control rating [4] | Test E disease control rating [5] | Test B disease control rating [6] |
| --- | --- | --- | --- | --- | --- | --- | --- | --- | --- | --- | --- | --- |
| OC(Cn1cncn1)(C1=NOC(c2ccc(Cl)cc2)C1)c1ccc(F)cc1F (single isomer, unassigned) [Compound 130] | 0% | 100% | 100% | 100% | 11% | 14% | – | – | – | – | – | – |
| OC(Cn1cncn1)(C1=NOC(c2ccccc2)C1)c1ccccc1 (mixture of isomers) [Compound 115] | 0% | 99% | 100% | 68% | 0% | 51% | – | – | – | – | – | – |
| CC(C)(C)C(O)(Cn1cncn1)C1=NOC(c2ccc(Cl)cc2)C1 (single isomer, unassigned) [Compound 132] | 0% | 100% | 100% | 100% | 81% | 99% | – | – | – | – | – | – |
| CC1(c2ccc(Cl)cc2)CC(C(O)(Cn2cncn2)c2ccccc2)=NO1 (single isomer, unassigned) [Compound 211] | 0% | 76% | 0% | 28% | 0% | 0% | – | – | – | – | – | – |
| OC(Cn1cncn1)(C1=NOC(c2ccc(Cl)cc2)C1)c1ccccc1 (mixture of isomers) [Compound 117] | 0% | 98% | 100% | 99% | 11% | 61% | – | – | – | – | – | – |
| OC(Cn1cncn1)(C1=NOC(c2ccccc2F)C1)c1ccccc1 (mixture of isomers) [Compound 118] | 0% | 99% | 100% | 89% | 0% | 68% | – | – | – | – | – | – |
| OC(Cn1cncn1)(C1=NOC(c2ccccc2)(C(F)(F)F)C1)c1ccc(Cl)cc1 (single isomer, unassigned) [Compound 214] | – | – | – | – | – | – | 0% | 99% | 0% | 25% | 1% | 0% |
| OC(Cn1cncn1)(C1=NOC(c2ccccc2)(C(F)(F)F)C1)c1ccc(Cl)cc1 (single isomer, unassigned) [Compound 215] | – | – | – | – | – | – | 0% | 100% | 0% | 100% | 0% | 0% |
| OC(Cn1cncn1)(C1=NOC(c2ccc(F)cc2)C1)c1ccccc1 (mixture of isomers) [Compound 116] | 0% | 99% | 100% | 80% | 0% | 0% | – | – | – | – | – | – |
| CC1(c2ccc(Cl)cc2)CC(C(O)(Cn2cncn2)c2ccc(Cl)cc2)=NO1 (single isomer, unassigned) [Compound 212] | 0% | 100% | 96% | 100% | 0% | 28% | – | – | – | – | – | – |
| OC(Cn1cncn1)(C1=NOC(c2ccc(Cl)cc2)C1)c1ccc(Cl)cc1 (single isomer, unassigned) [Compound 120] | 0% | 98% | 95% | 100% | 8% | 0% | – | – | – | – | – | – |
| CC1(c2ccc(Cl)cc2)CC(C(O)(Cn2cncn2)c2ccc(Cl)cc2)=NO1 (single isomer, unassigned) [Compound 213] | 0% | 96% | 52% | 99% | 0% | 7% | – | – | – | – | – | – |
